From PubChem BioAssay AID1963847 (Molecular Pharmacology Branch, DTP, NCI, 2024)
pIC50: −log10 of the molar value.

Tested on: 415267-285-R-J2-PDC complex spheroid viability
Test: Anticancer human tumor 415267-285-R-J2-PDC patient-derived breast carcinoma cell line growth inhibition [POLQ]
Settings: for pIC50: curve of first compound; for viability, T/C: stronger effect = lower value
Outline: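 Three-cell-type spheroids modelling solid tumor plus stroma served as the readout system; POL inhibitors were tested individually and in combination, concentration ranges set by clinical Cmax where known.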

[1] = second compound 0.0316 µM, first compound 0.00316 µM
[2] = second compound 0.0316 µM, first compound 0.01 µM
[3] = second compound 0.0316 µM, first compound 0.0316 µM
[4] = second compound 0.0316 µM, first compound 0.1 µM
[5] = second compound 0.0316 µM, first compound 0.316 µM
[6] = second compound 0.0316 µM, first compound 1 µM
[7] = second compound 0.1 µM, first compound 0.00316 µM
[8] = second compound 0.1 µM, first compound 0.01 µM
[9] = second compound 0.1 µM, first compound 0.0316 µM
[10] = second compound 0.1 µM, first compound 0.1 µM
[11] = second compound 0.1 µM, first compound 0.316 µM
[12] = second compound 0.1 µM, first compound 1 µM
[13] = second compound 0.316 µM, first compound 0.00316 µM
[14] = second compound 0.316 µM, first compound 0.01 µM
[15] = second compound 0.316 µM, first compound 0.0316 µM
[16] = second compound 0.316 µM, first compound 0.1 µM
[17] = second compound 0.316 µM, first compound 0.316 µM
[18] = second compound 0.316 µM, first compound 1 µM
[19] = second compound 1 µM, first compound 0.00316 µM
[20] = second compound 1 µM, first compound 0.01 µM
[21] = second compound 1 µM, first compound 0.0316 µM
[22] = second compound 1 µM, first compound 0.1 µM
[23] = second compound 1 µM, first compound 0.316 µM
[24] = second compound 1 µM, first compound 1 µM
[25] = second compound 3.16 µM, first compound 0.00316 µM
[26] = second compound 3.16 µM, first compound 0.01 µM
[27] = second compound 3.16 µM, first compound 0.0316 µM
[28] = second compound 3.16 µM, first compound 0.1 µM
[29] = second compound 3.16 µM, first compound 0.316 µM
[30] = second compound 3.16 µM, first compound 1 µM
[31] = second compound 10 µM, first compound 0.00316 µM
[32] = second compound 10 µM, first compound 0.01 µM
[33] = second compound 10 µM, first compound 0.0316 µM
[34] = second compound 10 µM, first compound 0.1 µM
[35] = second compound 10 µM, first compound 0.316 µM
[36] = second compound 10 µM, first compound 1 µM
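Further: spheroids exposed to compounds for one week before readout.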
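Wherever viability, T/C is given: luminescence used as stand-in measure of viable cells; 100% = DMSO vehicle control viability.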

`C=CCn1c(=O)c2cnc(Nc3ccc(N4CCN(C)CC4)cc3)nc2n1-c1cccc(C(C)(C)O)n1` + Nc1ccc(C#CCN(C(=O)Cc2ncc(C(F)(F)F)cc2C(F)(F)F)c2ccc(F)cc2)nn1 was tested, and the pIC50 (second compound 0.0316 µM) was 6.35, the pIC50 (second compound 0.1 µM) was 6.39 and the pIC50 (second compound 0.316 µM) was 6.37. For the same molecule, the pIC50 (second compound 1 µM) was 6.40, the pIC50 (second compound 3.16 µM) was 6.47 and the pIC50 (second compound 10 µM) was 6.50. The viability, T/C [1] was 95.1%, the viability, T/C [2] was 102% and the viability, T/C [3] was 94.8%. The viability, T/C [4] was 98.2%, the viability, T/C [5] was 69% and the viability, T/C [6] was 5.9%. For the same molecule, the viability, T/C [7] was 107%, the viability, T/C [8] was 104% and the viability, T/C [9] was 102%. For the same molecule, the viability, T/C [10] was 87.6%, the viability, T/C [11] was 62.2% and the viability, T/C [12] was 6.38%. It also gave a viability, T/C [13] of 108%, a viability, T/C [14] of 108% and a viability, T/C [15] of 86.9%. It also gave a viability, T/C [16] of 96.3%, a viability, T/C [17] of 65.5% and a viability, T/C [18] of 5.51%. It also gave a viability, T/C [19] of 104%, a viability, T/C [20] of 95% and a viability, T/C [21] of 101%. It also gave a viability, T/C [22] of 87%, a viability, T/C [23] of 61.1% and a viability, T/C [24] of 4.94%. For the same molecule, the viability, T/C [25] was 106%, the viability, T/C [26] was 93.1% and the viability, T/C [27] was 95.3%. The viability, T/C [28] was 92.5%, the viability, T/C [29] was 53% and the viability, T/C [30] was 7.32%. For the same molecule, the viability, T/C [31] was 94.3%, the viability, T/C [32] was 95.5% and the viability, T/C [33] was 107%. For the same molecule, the viability, T/C [34] was 91.7%, the viability, T/C [35] was 50.3% and the viability, T/C [36] was 5.62%.
With `CCc1c2c(nc3ccc(O)cc13)-c1cc3c(c(=O)n1C2)COC(=O)[C@]3(O)CC` + Nc1ccc(C#CCN(C(=O)Cc2ncc(C(F)(F)F)cc2C(F)(F)F)c2ccc(F)cc2)nn1 the pIC50 (second compound 0.0316 µM) was 8.43, the pIC50 (second compound 0.1 µM) was 8.37 and the pIC50 (second compound 0.316 µM) was 8.46. For the same molecule, the pIC50 (second compound 1 µM) was > 8.50, the pIC50 (second compound 3.16 µM) was > 8.50 and the pIC50 (second compound 10 µM) was > 8.50. For the same molecule, the viability, T/C [1] was 56.2%, the viability, T/C [2] was 12.2% and the viability, T/C [3] was 4.64%. It also gave a viability, T/C [4] of 3.13%, a viability, T/C [5] of 1.82% and a viability, T/C [6] of 1.11%. For the same molecule, the viability, T/C [7] was 63.5%, the viability, T/C [8] was 10.5% and the viability, T/C [9] was 4.81%. For the same molecule, the viability, T/C [10] was 3.2%, the viability, T/C [11] was 2.14% and the viability, T/C [12] was 1.01%. The viability, T/C [13] was 53.6%, the viability, T/C [14] was 11.3% and the viability, T/C [15] was 4.02%. The viability, T/C [16] was 2.64%, the viability, T/C [17] was 2.39% and the viability, T/C [18] was 1.12%. For the same molecule, the viability, T/C [19] was 46.9%, the viability, T/C [20] was 9.28% and the viability, T/C [21] was 4.2%. For the same molecule, the viability, T/C [22] was 3.14%, the viability, T/C [23] was 2.27% and the viability, T/C [24] was 0.96%. The viability, T/C [25] was 42.7%, the viability, T/C [26] was 9.28% and the viability, T/C [27] was 5.9%. The viability, T/C [28] was 3.54%, the viability, T/C [29] was 2.55% and the viability, T/C [30] was 0.98%. For the same molecule, the viability, T/C [31] was 32.5%, the viability, T/C [32] was 9.81% and the viability, T/C [33] was 4.81%. It also gave a viability, T/C [34] of 2.88%, a viability, T/C [35] of 2.6% and a viability, T/C [36] of 1.04%.
For `CNCc1ccc(-c2[nH]c3cc(F)cc4c3c2CCNC4=O)cc1` + Nc1ccc(C#CCN(C(=O)Cc2ncc(C(F)(F)F)cc2C(F)(F)F)c2ccc(F)cc2)nn1, the pIC50 (second compound 0.0316 µM) was < 5.00, the pIC50 (second compound 0.1 µM) was < 5.00 and the pIC50 (second compound 0.316 µM) was < 5.00. For the same molecule, the pIC50 (second compound 1 µM) was < 5.00, the pIC50 (second compound 3.16 µM) was < 5.00 and the pIC50 (second compound 10 µM) was < 5.00. It also gave a viability, T/C [3] of 98.9%, a viability, T/C [4] of 107% and a viability, T/C [5] of 91.1%. The viability, T/C [6] was 84.6%, the viability, T/C (second compound 0.0316 µM, first compound 3.16 µM) was 91.9% and the viability, T/C (second compound 0.0316 µM, first compound 10 µM) was 103%. It also gave a viability, T/C [9] of 89.7%, a viability, T/C [10] of 105% and a viability, T/C [11] of 93.2%. For the same molecule, the viability, T/C [12] was 87.9%, the viability, T/C (second compound 0.1 µM, first compound 3.16 µM) was 101% and the viability, T/C (second compound 0.1 µM, first compound 10 µM) was 102%. It also gave a viability, T/C [15] of 98.9%, a viability, T/C [16] of 93.2% and a viability, T/C [17] of 91.4%. It also gave a viability, T/C [18] of 106%, a viability, T/C (second compound 0.316 µM, first compound 3.16 µM) of 94.4% and a viability, T/C (second compound 0.316 µM, first compound 10 µM) of 108%. For the same molecule, the viability, T/C [21] was 97.3%, the viability, T/C [22] was 98.7% and the viability, T/C [23] was 92.9%. The viability, T/C [24] was 98.6%, the viability, T/C (second compound 1 µM, first compound 3.16 µM) was 106% and the viability, T/C (second compound 1 µM, first compound 10 µM) was 118%. It also gave a viability, T/C [27] of 91.1%, a viability, T/C [28] of 100% and a viability, T/C [29] of 94%. It also gave a viability, T/C [30] of 96.5%, a viability, T/C (second compound 3.16 µM, first compound 3.16 µM) of 109% and a viability, T/C (second compound 3.16 µM, first compound 10 µM) of 107%. The viability, T/C [33] was 101%, the viability, T/C [34] was 97.6% and the viability, T/C [35] was 105%. For the same molecule, the viability, T/C [36] was 105%, the viability, T/C (second compound 10 µM, first compound 3.16 µM) was 113% and the viability, T/C (second compound 10 µM, first compound 10 µM) was 110%.
`COc1cccc(OCCCN)c1-c1cc(Nc2cnc(C#N)cn2)n[nH]1` + Nc1ccc(C#CCN(C(=O)Cc2ncc(C(F)(F)F)cc2C(F)(F)F)c2ccc(F)cc2)nn1 showed a pIC50 (second compound 0.0316 µM) of 8.15, a pIC50 (second compound 0.1 µM) of 8.21 and a pIC50 (second compound 0.316 µM) of 8.17. For the same molecule, the pIC50 (second compound 1 µM) was 8.22, the pIC50 (second compound 3.16 µM) was 8.24 and the pIC50 (second compound 10 µM) was 8.23. It also gave a viability, T/C [1] of 99%, a viability, T/C [2] of 29.9% and a viability, T/C [3] of 6.2%. For the same molecule, the viability, T/C [4] was 5.95%, the viability, T/C [5] was 4.32% and the viability, T/C [6] was 4.9%. For the same molecule, the viability, T/C [7] was 94.9%, the viability, T/C [8] was 18% and the viability, T/C [9] was 5.46%. It also gave a viability, T/C [10] of 5.78%, a viability, T/C [11] of 5.23% and a viability, T/C [12] of 3.98%. It also gave a viability, T/C [13] of 119%, a viability, T/C [14] of 13.8% and a viability, T/C [15] of 5.29%. For the same molecule, the viability, T/C [16] was 4.56%, the viability, T/C [17] was 4.96% and the viability, T/C [18] was 4.07%. For the same molecule, the viability, T/C [19] was 101%, the viability, T/C [20] was 8.35% and the viability, T/C [21] was 5.83%. The viability, T/C [22] was 5.25%, the viability, T/C [23] was 5.41% and the viability, T/C [24] was 4.11%. For the same molecule, the viability, T/C [25] was 94.9%, the viability, T/C [26] was 9.02% and the viability, T/C [27] was 5.49%. It also gave a viability, T/C [28] of 5.19%, a viability, T/C [29] of 6.6% and a viability, T/C [30] of 4.85%. For the same molecule, the viability, T/C [31] was 100%, the viability, T/C [32] was 7.29% and the viability, T/C [33] was 6.73%. For the same molecule, the viability, T/C [34] was 5.13%, the viability, T/C [35] was 4.64% and the viability, T/C [36] was 4.87%.
